In ChEMBL document CHEMBL4665820, “Discovery of VU6027459: A First-in-Class Selective and CNS Penetrant mGlu Positive Allosteric Modulator Tool Compound” (ACS Med Chem Lett, 2020):
Activity calls are given as the source filed them. The calls are words filed in the database; no cut-off is given here.

Tests used:
[1] = molecular target: Endothelin receptor type B (Homo sapiens) (UniProt P24530); assay: Displacement of [125I]-endothelin1 from human recombinant Endothelin ETB receptor cells at 10 uM incubated for 120 mins by scintillation counting analysis relative to control; type: cell-based
[2] = molecular target: Metabotropic glutamate receptor 7 (Rattus norvegicus, UniProt P35400); assay: Positive allosteric modulation of rat mGlu7 expressed in HEK293 cells co- expressing GIRK assessed as potentiation of L-AP4-induced thallium flux incubated for 140 sec by FluoZin2-AM dye based fluorescence analysis; type: cell-based
[3] = molecular target: Muscarinic acetylcholine receptor M3 (Homo sapiens) (UniProt P20309); assay: Displacement of [3H]4-DAMP from human recombinant M3 receptor at 10 uM after 60 mins by scintillation counting analysis relative to control
Cricetinae = assay: Displacement of [3H]-Glyburide from hamster potassium channel at 10 uM incubated for 120 mins by scintillation counting analysis relative to control
[4] = Half-life in Sprague-Dawley rat at 0.2 to 0.25 mg/kg, iv measured upto 24 hrs by LC/MS/MS analysis; type: ADME, organism-based; conditions: in vivo, dose 0.2-0.25 mg/kg
[5] = molecular target: Glucocorticoid receptor (Homo sapiens) (UniProt P04150); assay: Displacement of [3H]-Dexamethasone from human Glucocorticoid receptors at 10 uM incubated for 360 mins by scintillation counting analysis relative to control
Rattus norvegicus = organism: Rattus norvegicus; assay: Displacement of [3H]-Kainic acid from Glutamate ionotropic kainate receptor in rat at 10 uM incubated for 120 mins by scintillation counting analysis relative to control
[6] = molecular target: Cannabinoid receptor 1 (Homo sapiens) (UniProt P21554); assay: Displacement of [3H]-SR141716A from human recombinant full length Cannabinoid CB1 receptor at 10 uM incubated for 60 mins by scintillation counting analysis relative to control
Mus musculus = organism: Mus musculus; assay: Displacement of [3H]-PDBu from mouse phorbol ester receptor at 10 uM incubated for 60 mins by scintillation counting analysis relative to control
[7] = molecular target: dopamine transporter (DAT) (Homo sapiens, UniProt Q01959); assay: Displacement of […] from recombinant human Dopamine transporter at 10 uM after 120 mins by scintillation counting analysis relative to control; type: ADME
[8] = Fraction unbound in rat plasma at 5 uM incubated for 4 hrs by equilibrium dialysis based LC-MS/MS analysis; type: ADME, cell-free
hERG (KCNH2) = hERG (KCNH2) (Homo sapiens, UniProt Q12809); assay: Displacement of [3H]-Astemizole from human recombinant full length ERG channel at 10 uM incubated for 60 mins by scintillation counting analysis relative to control; conditions: probe [3H]-astemizole
[9] = Plasma clearance in Sprague-Dawley rat at 0.2 to 0.25 mg/kg, iv measured upto 24 hrs by LC/MS/MS analysis; type: ADME, organism-based; conditions: dose 0.2-0.25 mg/kg
[10] = molecular target: B2 bradykinin receptor (Homo sapiens) (UniProt P30411); assay: Displacement of [3H]bradykinin from human recombinant B2 receptor at 10 uM after 60 mins by scintillation counting analysis relative to control
[11] = molecular target: Metabotropic glutamate receptor 7 (Rattus norvegicus) (UniProt P35400); assay: Positive allosteric modulation of rat mGlu7 receptor expressed in HEK293 cells co-expressing Gai5 assessed as potentiation of L-AP4-induced calcium mobilization preincubated for 140 secs and treated with EC20 L-AP4 for 125 secs and followed by subsequent addition of EC80 L-AP4 by Fluo-4-AM dye based fluorescence assay relative to maximal induction of L-AP4; type: functional, cell-based; conditions: filed as positive allosteric modulator, time 140.0 sec
[12] = Volume of distribution at steady state in Sprague-Dawley rat at 0.2 to 0.25 mg/kg, iv measured upto 24 hrs by LC/MS/MS analysis; type: ADME, organism-based; conditions: in vivo, dose 0.2-0.25 mg/kg, read-out: Vdss
[13] = molecular target: Metabotropic glutamate receptor 7 (Homo sapiens) (UniProt Q14831); assay: Positive allosteric modulation of human mGlu7 receptor; conditions: filed as positive allosteric modulator; tested as the 2H-labelled form
[14] = Hepatic intrinsic clearance in mouse liver microsomes at 1 uM preincubated for 5 mins followed by NADPH addition and measured up to 45 mins by LC-MS/MS analysis; type: ADME, Microsome; conditions: read-out: CLH
[15] = molecular target: Metabotropic glutamate receptor 7 (Homo sapiens) (UniProt Q14831); assay: Agonist activity at human mGlu7 receptor; conditions: tested as the 2H-labelled form
[16] = Hepatic intrinsic clearance in rat liver microsomes at 1 uM preincubated for 5 mins followed by NADPH addition and measured up to 45 mins by LC-MS/MS analysis; type: ADME, Microsome; conditions: read-out: CLH

Sequence of Metabotropic glutamate receptor 7 (Rattus norvegicus) (P35400 whole entry): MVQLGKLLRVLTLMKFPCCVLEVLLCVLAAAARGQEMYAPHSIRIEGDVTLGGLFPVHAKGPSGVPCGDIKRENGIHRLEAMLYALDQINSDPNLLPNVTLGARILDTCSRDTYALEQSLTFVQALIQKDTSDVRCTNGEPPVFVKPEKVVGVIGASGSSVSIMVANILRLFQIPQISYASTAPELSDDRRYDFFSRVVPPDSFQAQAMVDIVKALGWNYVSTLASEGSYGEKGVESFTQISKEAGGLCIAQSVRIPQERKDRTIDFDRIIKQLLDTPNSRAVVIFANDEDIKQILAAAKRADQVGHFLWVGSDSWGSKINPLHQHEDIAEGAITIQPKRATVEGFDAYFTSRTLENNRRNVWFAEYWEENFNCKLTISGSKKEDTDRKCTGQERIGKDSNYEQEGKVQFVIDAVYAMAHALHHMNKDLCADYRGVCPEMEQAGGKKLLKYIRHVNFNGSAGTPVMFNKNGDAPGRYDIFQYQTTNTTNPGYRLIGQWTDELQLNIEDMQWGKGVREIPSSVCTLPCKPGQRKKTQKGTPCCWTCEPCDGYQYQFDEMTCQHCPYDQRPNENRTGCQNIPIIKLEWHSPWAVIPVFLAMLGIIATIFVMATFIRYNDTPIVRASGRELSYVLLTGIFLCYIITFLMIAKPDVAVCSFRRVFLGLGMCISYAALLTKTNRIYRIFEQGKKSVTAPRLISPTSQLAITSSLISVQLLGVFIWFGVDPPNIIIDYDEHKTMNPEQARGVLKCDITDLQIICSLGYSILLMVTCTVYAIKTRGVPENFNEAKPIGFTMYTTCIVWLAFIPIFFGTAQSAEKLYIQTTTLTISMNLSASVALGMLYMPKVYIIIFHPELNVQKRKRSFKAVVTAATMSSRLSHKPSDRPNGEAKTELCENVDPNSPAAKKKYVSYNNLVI
Sequence of Muscarinic acetylcholine receptor M3 (Homo sapiens) (P20309 whole entry, looked up): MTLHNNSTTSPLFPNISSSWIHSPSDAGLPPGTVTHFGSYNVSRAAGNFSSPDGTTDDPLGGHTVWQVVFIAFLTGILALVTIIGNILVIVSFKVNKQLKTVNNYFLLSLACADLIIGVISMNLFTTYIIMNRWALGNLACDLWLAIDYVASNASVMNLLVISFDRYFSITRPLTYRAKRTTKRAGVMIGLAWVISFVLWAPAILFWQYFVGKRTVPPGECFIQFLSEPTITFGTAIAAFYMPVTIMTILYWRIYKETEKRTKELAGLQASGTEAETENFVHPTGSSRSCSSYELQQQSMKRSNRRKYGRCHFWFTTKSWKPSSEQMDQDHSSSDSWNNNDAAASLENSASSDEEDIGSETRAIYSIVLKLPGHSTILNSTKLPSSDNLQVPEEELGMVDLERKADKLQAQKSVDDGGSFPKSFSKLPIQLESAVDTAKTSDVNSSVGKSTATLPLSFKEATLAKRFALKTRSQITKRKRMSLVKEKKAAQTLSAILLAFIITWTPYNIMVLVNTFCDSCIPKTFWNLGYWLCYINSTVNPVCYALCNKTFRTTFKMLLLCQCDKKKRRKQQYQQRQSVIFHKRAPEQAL
Sequence of Endothelin receptor type B (Homo sapiens) (P24530 whole entry): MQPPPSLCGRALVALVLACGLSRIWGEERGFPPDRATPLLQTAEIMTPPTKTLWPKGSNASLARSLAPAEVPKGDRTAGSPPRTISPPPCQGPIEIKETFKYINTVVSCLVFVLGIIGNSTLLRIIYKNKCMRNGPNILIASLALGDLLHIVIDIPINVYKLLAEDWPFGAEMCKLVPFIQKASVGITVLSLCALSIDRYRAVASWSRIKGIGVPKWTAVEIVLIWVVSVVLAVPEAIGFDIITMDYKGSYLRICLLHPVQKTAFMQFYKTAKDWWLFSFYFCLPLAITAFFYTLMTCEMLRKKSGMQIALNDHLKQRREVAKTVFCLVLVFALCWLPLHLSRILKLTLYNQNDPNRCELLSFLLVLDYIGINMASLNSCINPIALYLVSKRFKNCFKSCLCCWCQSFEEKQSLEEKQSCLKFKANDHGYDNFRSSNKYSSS
Sequence of Metabotropic glutamate receptor 7 (Homo sapiens) (Q14831 whole entry): as the sequence (P35400 whole entry) above, with G5R, V27A, H454N, T488S, S520A, N578D counted along it
Sequence of Glucocorticoid receptor (Homo sapiens) (P04150 whole entry): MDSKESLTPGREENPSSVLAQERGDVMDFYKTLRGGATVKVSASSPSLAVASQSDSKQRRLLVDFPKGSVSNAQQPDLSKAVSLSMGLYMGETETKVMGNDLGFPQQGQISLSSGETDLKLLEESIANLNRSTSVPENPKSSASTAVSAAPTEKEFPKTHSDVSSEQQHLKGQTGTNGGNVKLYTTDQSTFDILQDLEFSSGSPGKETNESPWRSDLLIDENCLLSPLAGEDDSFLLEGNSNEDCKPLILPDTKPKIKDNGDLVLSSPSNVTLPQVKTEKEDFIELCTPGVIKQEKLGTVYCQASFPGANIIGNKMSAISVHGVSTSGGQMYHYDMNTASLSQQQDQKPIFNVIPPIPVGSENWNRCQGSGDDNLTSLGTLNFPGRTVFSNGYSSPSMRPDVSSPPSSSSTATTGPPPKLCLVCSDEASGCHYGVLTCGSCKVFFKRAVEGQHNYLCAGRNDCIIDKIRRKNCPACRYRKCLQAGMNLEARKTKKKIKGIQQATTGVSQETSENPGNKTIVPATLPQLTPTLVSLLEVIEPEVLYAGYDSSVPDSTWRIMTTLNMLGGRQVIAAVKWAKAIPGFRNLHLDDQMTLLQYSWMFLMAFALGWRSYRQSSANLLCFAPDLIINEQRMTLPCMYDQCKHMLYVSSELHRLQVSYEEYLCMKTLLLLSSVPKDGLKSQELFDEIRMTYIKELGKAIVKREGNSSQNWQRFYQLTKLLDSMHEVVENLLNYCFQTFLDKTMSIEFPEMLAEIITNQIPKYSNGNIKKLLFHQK
Sequence of Cannabinoid receptor 1 (Homo sapiens) (P21554 whole entry): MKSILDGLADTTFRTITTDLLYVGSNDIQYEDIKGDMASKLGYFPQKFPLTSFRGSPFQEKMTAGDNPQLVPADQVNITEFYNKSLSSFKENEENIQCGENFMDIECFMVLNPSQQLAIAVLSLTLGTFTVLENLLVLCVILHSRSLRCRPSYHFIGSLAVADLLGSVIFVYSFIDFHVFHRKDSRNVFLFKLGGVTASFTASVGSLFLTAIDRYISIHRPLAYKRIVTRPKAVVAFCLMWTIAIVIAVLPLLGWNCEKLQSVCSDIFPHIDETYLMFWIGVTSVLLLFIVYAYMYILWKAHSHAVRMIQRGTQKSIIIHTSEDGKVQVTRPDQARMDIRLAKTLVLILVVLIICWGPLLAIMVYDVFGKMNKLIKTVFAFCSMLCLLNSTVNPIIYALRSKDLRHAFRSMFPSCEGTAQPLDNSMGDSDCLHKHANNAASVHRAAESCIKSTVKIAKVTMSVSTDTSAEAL
Sequence of B2 bradykinin receptor (Homo sapiens) (P30411 whole entry): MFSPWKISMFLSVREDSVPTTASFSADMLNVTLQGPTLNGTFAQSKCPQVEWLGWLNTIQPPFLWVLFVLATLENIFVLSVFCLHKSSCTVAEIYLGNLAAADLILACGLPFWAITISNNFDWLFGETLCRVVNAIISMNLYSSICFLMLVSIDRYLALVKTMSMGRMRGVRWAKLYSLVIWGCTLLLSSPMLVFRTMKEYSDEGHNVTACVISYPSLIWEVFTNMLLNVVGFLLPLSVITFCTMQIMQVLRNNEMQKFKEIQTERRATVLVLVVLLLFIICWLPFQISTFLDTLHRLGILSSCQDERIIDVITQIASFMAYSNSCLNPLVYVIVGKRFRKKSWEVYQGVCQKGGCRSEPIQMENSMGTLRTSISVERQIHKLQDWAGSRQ
Sequence of Metabotropic glutamate receptor 7 (P35400 whole entry): as the sequence (P35400 whole entry) above
Sequence of dopamine transporter (DAT) (Q01959 whole entry): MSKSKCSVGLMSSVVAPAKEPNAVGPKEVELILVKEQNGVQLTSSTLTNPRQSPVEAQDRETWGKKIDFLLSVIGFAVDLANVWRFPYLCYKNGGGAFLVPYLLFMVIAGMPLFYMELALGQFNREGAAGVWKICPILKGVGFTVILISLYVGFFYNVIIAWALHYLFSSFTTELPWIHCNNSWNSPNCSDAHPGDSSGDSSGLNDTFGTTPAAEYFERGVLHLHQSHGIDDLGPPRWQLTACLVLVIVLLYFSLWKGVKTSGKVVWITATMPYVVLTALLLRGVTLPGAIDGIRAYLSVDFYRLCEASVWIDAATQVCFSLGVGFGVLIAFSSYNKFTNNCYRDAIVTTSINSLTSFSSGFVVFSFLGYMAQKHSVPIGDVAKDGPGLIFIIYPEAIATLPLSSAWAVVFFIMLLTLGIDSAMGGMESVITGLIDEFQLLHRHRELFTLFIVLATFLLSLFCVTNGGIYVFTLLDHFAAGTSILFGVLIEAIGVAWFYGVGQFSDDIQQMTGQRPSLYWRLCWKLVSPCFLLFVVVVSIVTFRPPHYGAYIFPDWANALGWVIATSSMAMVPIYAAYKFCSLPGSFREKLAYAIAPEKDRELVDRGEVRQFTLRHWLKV

For `COc1cccc2c(N3CCN(c4ccccc4F)CC3)c(C#N)cnc12`, the inhibition [1] was under 50%, the EC50 [2] was 879 nM and the inhibition [3] was under 50%. The inhibition (Cricetinae) was under 50%, the half-life [4] was 45 min and the inhibition [5] was under 50%. The inhibition (Rattus norvegicus) was under 50%, the inhibition [6] was under 50% and the inhibition (Mus musculus) was under 50%. For the same compound, the inhibition at 2 h, 10 µM [7] was 85%, the fraction unbound at 4 h, 5 µM [8] was 0.032 and the inhibition at 1 h, 10 µM (hERG (KCNH2)) was under 50%. The clearance [9] was 47.5 mL/min/kg, the inhibition [10] was under 50% and the Activity [11] was 85.1%. It also gave an Activity ([11]; tested as the 2H-labelled form) of 73% and a Vd [12] of 4.1 L/kg.

In the case of `COc1cc(F)cc2c(N3CCN(c4ccccc4F)CC3)c(C#N)cnc12`, the inhibition ([1]; tested as the 2H-labelled form) is reported as under 50%, the inhibition ([3]; tested as the 2H-labelled form) is reported as under 50% and the Activity [13] is reported as “Active”. The inhibition (Cricetinae; tested as the 2H-labelled form) was under 50%, the CLint scaled at 1 µM [14] was 87 mL/min/kg and the Activity [15] was “inactive”. The inhibition ([5]; tested as the 2H-labelled form) was under 50%, the inhibition (Rattus norvegicus; tested as the 2H-labelled form) was under 50% and the inhibition ([6]; tested as the 2H-labelled form) was under 50%. For the same compound, the inhibition (Mus musculus; tested as the 2H-labelled form) was under 50%, the fraction unbound at 4 h, 5 µM [8] was 0.01 and the CLint scaled at 1 µM [16] was 56 mL/min/kg. The inhibition ([10]; tested as the 2H-labelled form) was under 50%, the Activity [11] was 98% and the Activity ([11]; tested as the 2H-labelled form) was 98%.
